Activity calls are given as the source filed them. The calls are words filed in the database; no cut-off is given here.
Assays:
U138-MG [1] = experiment: Cytotoxicity against human U138MG cells assessed as reduction in cell viability at 10 uM relative to control; assay type: functional
C6 [2] = experiment: Cytotoxicity against rat C6 cells assessed as reduction in cell viability at 5 to 50 uM after 72 hrs by MTT assay; assay type: functional, cell-based
C6 [3] = experiment: Cytotoxicity against rat C6 cells assessed as reduction in cell viability after 72 hrs by MTT assay; assay type: functional, cell-based
C6 [4] = experiment: Cytotoxicity against rat C6 cells assessed as reduction in cell viability at 50 uM after 72 hrs by MTT assay relative to control; assay type: functional
C6 [5] = experiment: Cytotoxicity against rat C6 cells assessed as reduction in cell viability at 25 to 50 uM after 72 hrs by MTT assay; assay type: functional, cell-based
C6 [6] = experiment: Cytotoxicity against rat C6 cells assessed as reduction in cell viability at 10 uM after 72 hrs by MTT assay relative to control; assay type: functional
C6 [7] = experiment: Cytotoxicity against rat C6 cells assessed as reduction in cell viability at 150 uM relative to control; assay type: functional
U138-MG [8] = experiment: Cytotoxicity against human U138MG cells assessed as reduction in cell viability at 150 uM relative to control; assay type: functional
C6 [9] = experiment: Cytotoxicity against rat C6 cells assessed as reduction in cell viability at 5 uM after 72 hrs by MTT assay relative to control; assay type: functional

## CCCCCCCCCCCCCCCCOC(=O)C1=C(C)NC(=O)NC1c1cccc(O)c1 (stereo not given)
U138-MG [1]
  Activity: 50%

## CCOC(=O)C1=C(C)NC2=C(C(=O)CC(C)(C)C2)C1c1ccccc1 (stereo not given)
C6 [2]
  Activity: Active

## CCCCCCCCCCCCCCCCCCOC(=O)C1=C(C)NC2=C(C(=O)CC(C)(C)C2)C1c1ccc(OC)cc1 (stereo not given)
C6 [3]
  Activity: Dose-dependent effect

## CCOC(=O)C1=C(C)NC(=S)NC1c1cccc(O)c1 (stereo not given) [MONASTROL]
C6 [4]
  Activity: 50%

## CCCCCCCCCCCCCCCCCCOC(=O)C1=C(C)NC2=C(C(=O)CC(C)(C)C2)C1c1cccc([N+](=O)[O-])c1 (stereo not given)
C6 [5]
  Activity: inactive
C6 [3]
  Activity: Dose-dependent effect

## CCCCCCCCCCCCCCCCCCOC(=O)C1=C(C)NC2=C(C(=O)CC(C)(C)C2)C1c1cccc(OC)c1 (stereo not given)
C6 [5]
  Activity: inactive
C6 [3]
  Activity: Dose-dependent effect

## CCCCCCCCCCCCCCCCOC(=O)C1=C(C)NC2=C(C(=O)CC(C)(C)C2)C1c1ccccc1 (stereo not given)
C6 [3]
  Activity: Dose-dependent effect

## CCCCCCCCCCCCCCCCOC(=O)C1=C(C)NC2=C(C(=O)CC(C)(C)C2)C1c1cccc(O)c1 (stereo not given)
C6 [6]
  Activity: 40%
C6 [3]
  Activity: Dose-dependent effect

## O=Cc1cccc(O)c1 [3-HYDROXYBENZALDEHYDE]
C6 [7]
  Activity: 30%
U138-MG [8]
  Activity: 30%

## CCCCCCCCCCCCCCCCCCOC(=O)C1=C(C)NC2=C(C(=O)CC(C)(C)C2)C1c1cccc(O)c1 (stereo not given)
C6 [9]
  Activity: 40%
C6 [3]
  Activity: Dose-dependent effect
